Patent US20230021483A1, “[…] […] METHOD AND CLASSIFICATION OF PHARMACEUTICAL COMPONENTS BY USING TRANSCRIPTOMES” (National Institutes of Biomedical Innovation, Health and …, priority 2016, published 2023)
Values joined by “and” are separate entries in the source; they are usually repeats but may differ in a detail not shown here. Equal values may be shown once.

Columns and labels:
Assay type in all cases: in vivo, C57BL/6 mice
LV, SP and LNs = assay: Whole organ transcriptome across organs (adjuvant gene space): gene responses and adjuvant grouping
[1] = tested on: inguinal lymph nodes (LN); assay: Whole organ transcriptome (GeneChip microarray) of draining inguinal lymph nodes 6 h after adjuvant administration: sDEGs, gene modules, hierarchical clustering; conditions: lymph node; as to adjuvant group (cluster) in LN: key: G1 (interferon signaling); G2 (metabolism of lipids and lipoproteins); G3 (response to stress); G4 (response to wounding); G5 (phosphate-containing compound metabolic process); G6 (phagosome)
[2] = tested on: preferentially upregulated genes in LV, SP, LN; assay: Z-score-based differential gene expression analysis (adjuvant group- or adjuvant-associated genes, 40 module mapping, TargetMine annotation); conditions: for Adar 1425405_a_at (Group G1, Modules 20) / Adar 1434268_at (Group G1, Modules 20) / Ddx58 1436562_at (Group G1, Modules 20) / Ddx58 1456890_at (Group G1, Modules 20) / Gm9706///Isg15 1431591_s_at (Group G1, Modules 20) / Ifit1 1450783_at (Group G1, Modules 20) / Ifit3 1449025_at (Group G1, Modules 20) / Irgm1 1418825_at (Group G1, Modules 20) / Mndal 1426906_at (Group G1, Modules 20) / Rsad2 1436058_at (Group G1, Modules 20) / Shisa5 1423986_a_at (Group G1, Modules 20) / Shisa5 1437503_a_at (Group G1, Modules 20) / Stat1 1450033_a_at (Group G1, Modules 20) / Stat1 1450034_at (Group G1, Modules 20) / Tor1aip2 1435526_at (Group G1, Modules 20): IP, LV
Outline: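 Gene groups for each organ were built from combined z-score cutoffs across adjuvants, ranging from z>1 to z>3. Scores came from fold changes standardized per gene over the whole organ data set, with the three replicate z-scores added per adjuvant; sums above 3 marked preferential expression.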

[3] = liver (LV), gene group G1, module 20, individual mice x1-x3, route ID/IP/IN

CC(O)COC[C@H]1O[C@@H]2O[C@H]3[C@H](O)[C@@H](O)[C@@H](O[C@H]4[C@H](O)[C@@H](O)[C@@H](O[C@H]5[C@H](O)[C@@H](O)[C@@H](O[C@H]6[C@H](O)[C@@H](O)[C@@H](O[C@H]7[C@H](O)[C@@H](O)[C@@H](O[C@H]8[C@H](O)[C@@H](O)[C@@H](O[C@H]1[C@H](O)[C@H]2O)O[C@@H]8COCC(C)O)O[C@@H]7COCC(C)O)O[C@@H]6COCC(C)O)O[C@@H]5COCC(C)O)O[C@@H]4COCC(C)O)O[C@@H]3COCC(C)O (stereo partly drawn) [bCD, Hydroxypropyl-beta-cyclodextrin]
gene expression changes in LV and SP (LV, SP and LNs; 6 h, Table 15, route not given): relatively weaker responses
adjuvant group (cluster) within the adjuvant gene space (LV, SP and LNs; hierarchical clustering, LV, SP and/or LNs): G2
adjuvant group (cluster) in LN ([1]; hierarchical clustering): G2
Number of gene probes with statistically significant changes (sDEGs), LN, Down ([1]; i.d. administration, fold change <0.667, p<0.01, customized PA call=1, 6 h after adjuvant): 110
Number of gene probes with statistically significant changes (sDEGs), LN, Up ([1]; i.d. administration, fold change >1.5, p<0.01, customized PA call=1, 6 h after adjuvant): 89
Adar 1425405_a_at (Group G1, Modules 20) ([2]; sample x1): −0.5
Adar 1434268_at (Group G1, Modules 20) ([2]; sample x1): −0.3
Ddx58 1436562_at (Group G1, Modules 20) ([2]; sample x1): −0.4
Ddx58 1456890_at (Group G1, Modules 20) ([2]; sample x1): −0.6
Gm9706///Isg15 1431591_s_at (Group G1, Modules 20) ([2]; sample x1): −0.5
Ifit1 1450783_at (Group G1, Modules 20) ([2]; sample x1): −0.5
Ifit3 1449025_at (Group G1, Modules 20) ([2]; sample x1): −0.5
Irgm1 1418825_at (Group G1, Modules 20) ([2]; sample x1): −0.5
Mndal 1426906_at (Group G1, Modules 20) ([2]; sample x1): −0.3
Rsad2 1436058_at (Group G1, Modules 20) ([2]; sample x1): −0.5
Shisa5 1423986_a_at (Group G1, Modules 20) ([2]; sample x1): −0.6
Shisa5 1437503_a_at (Group G1, Modules 20) ([2]; sample x1): −0.4
Stat1 1450033_a_at (Group G1, Modules 20) ([2]; sample x1): −0.5
Stat1 1450034_at (Group G1, Modules 20) ([2]; sample x1): −0.5
Tor1aip2 1435526_at (Group G1, Modules 20) ([2]; sample x1): −0.4
Adar 1425405_a_at (Group G1, Modules 20) ([2]; sample x2): −0.4
Adar 1434268_at (Group G1, Modules 20) ([2]; sample x2): −0.4
Ddx58 1436562_at (Group G1, Modules 20) ([2]; sample x2): −0.3
Ddx58 1456890_at (Group G1, Modules 20) ([2]; sample x2): −0.4
Gm9706///Isg15 1431591_s_at (Group G1, Modules 20) ([2]; sample x2): −0.5
Ifit1 1450783_at (Group G1, Modules 20) ([2]; sample x2): −0.5
Ifit3 1449025_at (Group G1, Modules 20) ([2]; sample x2): −0.5
Irgm1 1418825_at (Group G1, Modules 20) ([2]; sample x2): −0.6
Mndal 1426906_at (Group G1, Modules 20) ([2]; sample x2): −0.3
Rsad2 1436058_at (Group G1, Modules 20) ([2]; sample x2): −0.4
Shisa5 1423986_a_at (Group G1, Modules 20) ([2]; sample x2): −0.3
Shisa5 1437503_a_at (Group G1, Modules 20) ([2]; sample x2): −0.3
Stat1 1450033_a_at (Group G1, Modules 20) ([2]; sample x2): −0.6
Stat1 1450034_at (Group G1, Modules 20) ([2]; sample x2): −0.5
Tor1aip2 1435526_at (Group G1, Modules 20) ([2]; sample x2): −0.3
Adar 1425405_a_at (Group G1, Modules 20) ([2]; sample x3): −0.3
Adar 1434268_at (Group G1, Modules 20) ([2]; sample x3): −0.4
Ddx58 1436562_at (Group G1, Modules 20) ([2]; sample x3): −0.1
Ddx58 1456890_at (Group G1, Modules 20) ([2]; sample x3): −0.3
Gm9706///Isg15 1431591_s_at (Group G1, Modules 20) ([2]; sample x3): −0.5
Ifit1 1450783_at (Group G1, Modules 20) ([2]; sample x3): −0.5
Ifit3 1449025_at (Group G1, Modules 20) ([2]; sample x3): −0.5
Irgm1 1418825_at (Group G1, Modules 20) ([2]; sample x3): −0.5
Mndal 1426906_at (Group G1, Modules 20) ([2]; sample x3): −0.5
Rsad2 1436058_at (Group G1, Modules 20) ([2]; sample x3): −0.4
Shisa5 1423986_a_at (Group G1, Modules 20) ([2]; sample x3): −0.3
Shisa5 1437503_a_at (Group G1, Modules 20) ([2]; sample x3): −0.3
Stat1 1450033_a_at (Group G1, Modules 20) ([2]; sample x3): −0.5
Stat1 1450034_at (Group G1, Modules 20) ([2]; sample x3): −0.5
Tor1aip2 1435526_at (Group G1, Modules 20) ([2]; sample x3): −0.6
Z score of gene expression, Adar (probe 1425405_a_at) [2, 3]: −0.4 and −0.6 and −0.7
Z score of gene expression, Adar (probe 1434268_at) [2, 3]: −0.1 and −0.5 and −0.3
Z score of gene expression, Ddx58 (probe 1436562_at) [2, 3]: −0.7
Z score of gene expression, Ddx58 (probe 1456890_at) [2, 3]: −0.6 and −0.7 (2×)
Z score of gene expression, Eif2ak2 (probe 1422005_at) [2, 3]: −0.4 and −0.6 and −0.5
Z score of gene expression, G3bp2 (probe 1421323_a_at) [2, 3]: −0.3 (2×) and −0.4
Z score of gene expression, Gm9706///Isg15 (probe 1431591_s_at) [2, 3]: −0.5
Z score of gene expression, H2-T10///H2-T22///H2-T9 (probe 1449875_s_at) [2, 3]: −0.6 (2×) and −0.8
Z score of gene expression, Ifih1 (probe 1426276_at) [2, 3]: −0.5 and −0.6 (2×)
Z score of gene expression, Ifit1 (probe 1449025_at) [2, 3]: −0.5
Z score of gene expression, Ifit1 (probe 1450783_at) [2, 3]: −0.5
Z score of gene expression, Irf7 (probe 1417244_a_at) [2, 3]: −0.4 (2×) and −0.5
Z score of gene expression, Irgm1 (probe 1418825_at) [2, 3]: −0.5 and −0.7 and −0.6
Z score of gene expression, Mndal (probe 1426906_at) [2, 3]: −0.5 and −0.6 (2×)
Z score of gene expression, Pml (probe 1448757_at) [2, 3]: −0.6 and −0.7 (2×)
Z score of gene expression, Pml (probe 1456103_at) [2, 3]: −0.6 (2×) and −0.5
Z score of gene expression, Rnf213 (probe 1455500_at) [2, 3]: −0.5 and −0.6 (2×)
Z score of gene expression, Rsad2 (probe 1436058_at) [2, 3]: −0.5
Z score of gene expression, Shisa5 (probe 1423986_a_at) [2, 3]: −0.6 and −0.7 and −0.8
Z score of gene expression, Shisa5 (probe 1437503_a_at) [2, 3]: −0.4 and −0.7 and −0.5
Z score of gene expression, Stat1 (probe 1450033_a_at) [2, 3]: −0.6
Z score of gene expression, Stat1 (probe 1450034_at) [2, 3]: −0.5 and −0.6 (2×)
Z score of gene expression, Tdrd7 (probe 1426716_at) [2, 3]: −0.7 and −1 and −0.9
Z score of gene expression, Tor1aip2 (probe 1418115_s_at) [2, 3]: −0.2 and −0.7 and −0.6
Z score of gene expression, Tor1aip2 (probe 1418116_at) [2, 3]: −0.4 and −0.8 and −0.6
Z score of gene expression, Tor1aip2 (probe 1435526_at) [2, 3]: −0.4 (2×) and −0.7
Z score of gene expression, Trim12a (probe 1437432_a_at) [2, 3]: −0.5
Z score of gene expression, Uba7 (probe 1426970_a_at) [2, 3]: −0.6 (2×) and −0.7
